# Laboratory results: US12331063B2, “Hetero-bicyclic inhibitors of KRAS” (Incyte Corporation, priority 2021, dated 2025)
# Biological target: KRAS G12D (Homo sapiens, UniProt P01116, G12D)
# Experiment: GDP-GTP exchange assay (bodipy-GDP/GppNHp, SOS1), KRAS G12D
# Assay type: biochemical
# Settings: bodipy-loaded KRAS G12D 2.5 nM, 4 hours incubation after adding GppNHp-SOS1 mixture
# Description: The inhibitor potency of the exemplified compounds was determined in a fluorescence based guanine nucleotide exchange assay, which measures the exchange of bodipy-GDP (fluorescently labeled GDP) for GppNHp (Non-hydrolyzable GTP analog) to generate the active state of KRAS in the presence of SOS1 (guanine nucleotide exchange factor). Inhibitors were serially diluted in DMSO and a volume of 0.1 μL was transferred to the wells of a black low volume 384-well plate. 5 μL/well volume of bodipy-loaded KRAS G12C diluted to 5 nM in assay buffer (25 mM Hepes pH 7.5, 50 mM NaCl, 10 mM MgCl2 and 0.01% Brij-35) was added to the plate and pre-incubated with inhibitor for 2 hours at ambient temperature. Appropriate controls (enzyme with no inhibitor or with a G12C inhibitor (AMG-510)) were included on the plate. The exchange was initiated by the addition of a 5 μL/well volume containing 1 mM GppNHp and 300 nM SOS1 in assay buffer. The 10 μL/well reaction concentration of the bodipy-loaded KRAS G12C, GppNHp, and SOS1 were 2.5 nM, 500 uM, and 150 nM, respectively. The reaction plates were incubated at ambient temperature for 2 hours, a time estimated for complete GDP-GTP exchange in the absence of inhibitor. For the KRAS G12D and G12V mutants, similar guanine nucleotide exchange assays were used with 2.5 nM as final concentration for the bodipy loaded KRAS proteins and with 4 hours and 3 hours incubation after adding GppNHp-SOS1 mixture for G12D and G12V respectively. A cyclic peptide described to selectively bind G12D mutant (Sakamoto et al., BBRC 484.3 (2017), 605-611) or internal compounds with confirmed binding were used as positive controls in the assay plates. Fluorescence intensities were measured on a PheraStar plate reader instrument (BMG Labtech) with excitation at 485 nm and emission at 520 nm.
# Either GraphPad prism or XLfit was used to analyze the data. The IC50 values were derived by fitting the data to a four parameter logistic equation producing a sigmoidal dose-response curve with a variable Hill coefficient. Prism equation: Y=Bottom+(Top−Bottom)/(1+10^((Log IC50−X)*Hill slope)); XLfit equation: Y=(A+((B−A)/(1+((X/C)^D)))) where X is the logarithm of inhibitor concentration and Y is the response.
# The symbol “†” indicates IC50≤100 nM, “††” indicates IC50>100 nM but ≤1 μM; and “†††” indicates IC50 is >1 μM but ≤5 μM, “††††” indicates IC50 is >5 μM but ≤10 μM.
# Sequence of KRAS G12D (P01116 1-188 isoform P01116-2 G12D): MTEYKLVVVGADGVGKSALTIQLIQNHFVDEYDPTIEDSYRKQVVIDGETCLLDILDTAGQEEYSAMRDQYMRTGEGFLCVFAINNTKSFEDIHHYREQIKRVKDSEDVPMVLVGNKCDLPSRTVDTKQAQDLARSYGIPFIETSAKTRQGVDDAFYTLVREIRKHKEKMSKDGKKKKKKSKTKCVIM
row,IC50,SMILES
1,≤ 100 nM,"CN(C)C1CN(c2nc(N3C4CCC3CNC4)c3ccc(-c4cc(O)cc5ccccc45)c(F)c3c2C#N)C1 [Example 1, 1-(3,8-diazabicyclo[3.2.1]octan-8-yl)-3-(3-(dimethylamino)azetidin-1-yl)-5-fluoro-6-(3-hydroxynaphthalen-1-yl)isoquinoline-4-carbonitrile]"
2,100 to 1000 nM,"CN(C)C1CN(c2nc(N3C4CCC3CNC4)c3cc(CCC#N)c(-c4cc(O)cc5ccccc45)c(F)c3c2Cl)C1 [Example 2, 3-(1-(3,8-diazabicyclo[3.2.1]octan-8-yl)-4-chloro-3-(3-(dimethylamino)azetidin-1-yl)-5-fluoro-6-(3-hydroxynaphthalen-1-yl)isoquinolin-7-yl)propanenitrile]"
3,100 to 1000 nM,"Cc1c(N2CC(N(C)C)C2)nc(N2C3CCC2CNC3)c2cc(CCC#N)c(-c3cc(O)cc4ccccc34)c(F)c12 [Example 3, 3-(1-(3,8-diazabicyclo[3.2.1]octan-8-yl)-3-(3-(dimethylamino)azetidin-1-yl)-5-fluoro-6-(3-hydroxynaphthalen-1-yl)-4-methylisoquinolin-7-yl)propanenitrile]"
4,5000 to 10000 nM,"CN(C)C1CN(c2nc(N3C4CCC3CNC4)c3cc(CCC#N)c(-c4cc(O)cc5ccccc45)c(F)c3c2-c2ccccc2)C1 [Example 4, 3-(1-(3,8-diazabicyclo[3.2.1]octan-8-yl)-3-(3-(dimethylamino)azetidin-1-yl)-5-fluoro-6-(3-hydroxynaphthalen-1-yl)-4-phenylisoquinolin-7-yl)propanenitrile]"
5,100 to 1000 nM,"CN(C)C1CN(c2nc(N3C4CCC3CNC4)c3cc(CCC#N)c(-c4cc(O)cc5ccccc45)c(F)c3c2C2CC2)C1 [Example 5, 3-(1-(3,8-diazabicyclo[3.2.1]octan-8-yl)-4-cyclopropyl-3-(3-(dimethylamino)azetidin-1-yl)-5-fluoro-6-(3-hydroxynaphthalen-1-yl)isoquinolin-7-yl)propanenitrile]"
6,100 to 1000 nM,"CN(C)C1CN(c2nc(N3C4CCC3CNC4)c3cc(CCC#N)c(-c4cc(O)cc5ccccc45)c(F)c3c2C#N)C1 [Example 6, 1-(3,8-diazabicyclo[3.2.1]octan-8-yl)-7-(2-cyanoethyl)-3-(3-(dimethylamino)azetidin-1-yl)-5-fluoro-6-(3-hydroxynaphthalen-1-yl)isoquinoline-4-carbonitrile]"
7,100 to 1000 nM,"CN1CCC[C@H]1COc1nc(N2C3CCC2CNC3)c2cc(CCC#N)c(-c3cc(O)cc4ccccc34)c(F)c2c1C#N [Example 7, 1-(3,8-diazabicyclo[3.2.1]octan-8-yl)-7-(2-cyanoethyl)-5-fluoro-6-(3-hydroxynaphthalen-1-yl)-3-(((S)-1-methylpyrrolidin-2-yl)methoxy)isoquinoline-4-carbonitrile]"
8,100 to 1000 nM,"CN1CCC(Oc2nc(N3C4CCC3CNC4)c3cc(CCC#N)c(-c4cc(O)cc5ccccc45)c(F)c3c2C#N)CC1 [Example 8, 1-(3,8-diazabicyclo[3.2.1]octan-8-yl)-7-(2-cyanoethyl)-5-fluoro-6-(3-hydroxynaphthalen-1-yl)-3-((1-methylpiperidin-4-yl)oxy)isoquinoline-4-carbonitrile]"
9,100 to 1000 nM,"CN(C)Cc1cccc(-c2nc(N3C4CCC3CNC4)c3cc(CCC#N)c(-c4cc(O)cc5ccccc45)c(F)c3c2C#N)c1 [Example 9, 1-(3,8-diazabicyclo[3.2.1]octan-8-yl)-7-(2-cyanoethyl)-3-(3-((dimethylamino)methyl)phenyl)-5-fluoro-6-(3-hydroxynaphthalen-1-yl)isoquinoline-4-carbonitrile]"
10,100 to 1000 nM,"CN(C)C1CN(c2nc(N3C[C@H]4CC[C@@H]3CN4)c3cc(CCC#N)c(-c4cc(O)cc5ccccc45)c(F)c3c2C#N)C1 [Example 10, 1-((1R,4R)-2,5-diazabicyclo[2.2.2]octan-2-yl)-7-(2-cyanoethyl)-3-(3-(dimethylamino)azetidin-1-yl)-5-fluoro-6-(3-hydroxynaphthalen-1-yl)isoquinoline-4-carbonitrile]"
11,100 to 1000 nM,"CN(C)C1CN(c2nc(N3C[C@@H](N)C[C@H]3CO)c3cc(CCC#N)c(-c4cc(O)cc5ccccc45)c(F)c3c2C#N)C1 [Example 11, 1-((2S,4S)-4-amino-2-(hydroxymethyl)pyrrolidin-1-yl)-7-(2-cyanoethyl)-3-(3-(dimethylamino)azetidin-1-yl)-5-fluoro-6-(3-hydroxynaphthalen-1-yl)isoquinoline-4-carbonitrile]"
12,≤ 100 nM,"CN(C)C1CN(c2nc(N3CCC(CC#N)C3)c3cc(CCC#N)c(-c4cc(O)cc5ccccc45)c(F)c3c2C#N)C1 (stereo not shown) [Example 12, 7-(2-cyanoethyl)-1-(3-(cyanomethyl)pyrrolidin-1-yl)-3-(3-(dimethylamino)azetidin-1-yl)-5-fluoro-6-(3-hydroxynaphthalen-1-yl)isoquinoline-4-carbonitrile]"
13,≤ 100 nM,"CN(C)C1CN(c2nc(N3CC[C@H](N)C3)c3cc(CCC#N)c(-c4cc(O)cc5ccccc45)c(F)c3c2C#N)C1 [Example 13, 1-((S)-3-aminopyrrolidin-1-yl)-7-(2-cyanoethyl)-3-(3-(dimethylamino)azetidin-1-yl)-5-fluoro-6-(3-hydroxynaphthalen-1-yl)isoquinoline-4-carbonitrile]"
14,≤ 100 nM,"C[C@@H]1C[C@H](N)CN1c1nc(N2CC(N(C)C)C2)c(C#N)c2c(F)c(-c3cc(O)cc4ccccc34)c(CCC#N)cc12 [Example 14, 1-((2R,4S)-4-amino-2-methylpyrrolidin-1-yl)-7-(2-cyanoethyl)-3-(3-(dimethylamino)azetidin-1-yl)-5-fluoro-6-(3-hydroxynaphthalen-1-yl)isoquinoline-4-carbonitrile]"
15,≤ 100 nM,"N#Cc1c(OC[C@@]23CCCN2C[C@H](F)C3)nc(N2CC3CCC(C2)N3)c2cnc(-c3cc(O)cc4ccccc34)c(F)c12 [Example 15, 1-(3,8-diazabicyclo[3.2.1]octan-3-yl)-5-fluoro-3-(((2R,7aS)-2-fluorotetrahydro-1H-pyrrolizin-7a(5H)-yl)methoxy)-6-(3-hydroxynaphthalen-1-yl)-2,7-naphthyridine-4-carbonitrile]"
16,≤ 100 nM,"CCc1c(F)ccc2cc(O)cc(-c3ncc4c(N5CC6CCC(C5)N6)nc(N5CC(C)(N(C)C)C5)c(C#N)c4c3F)c12 [Example 16, 1-(3,8-diazabicyclo[3.2.1]octan-3-yl)-3-(3-(dimethylamino)-3-methylazetidin-1-yl)-6-(8-ethyl-7-fluoro-3-hydroxynaphthalen-1-yl)-5-fluoro-2,7-naphthyridine-4-carbonitrile]"
